pIC50: −log10 of the molar value.
Tests used:
[1] = tested on: HCT116 parental cells; assay: Proliferation assay (CellTiter-Glo, 10 days of treatment), HCT116 parental; type: cell-based; conditions: Homo sapiens, HCT-116, 240 h
Outline: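 250 cells seeded in McCoy's 5A with 10% FBS, then given a dose response of PRMT5 inhibitor at 37 °C, 5% CO2 for five days. Cells were split 1:10 on Day 6 into fresh medium with the same compound concentration for 5 more days. Viability read on Day 11 by CellTiter-Glo; IC50 after 10 days of treatment.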

[2] = tested on: HCT116 homozygous MTAP knockout cells; assay: Proliferation assay (CellTiter-Glo, 10 days of treatment), HCT116 MTAP knockout; type: cell-based; conditions: Homo sapiens, HCT-116, 240 h, read-out: Proliferation HCT116MTAP_KO IC50
Outline: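 Viability of the CRISPR/Cas9 homozygous MTAP-knockout HCT116 line was read by CellTiter-Glo after 10 days of PRMT5 inhibitor exposure, with IC50 derived from the dose response. Compound was given the day after seeding and renewed at an identical concentration when cells were split 1:10 on day 6.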

[3] = tested on: PRMT5-dependent Symmetric Di-methyl Arginine signal in HCT116 parental cells; assay: SYM11 In-Cell Western, HCT116 parental; type: cell-based; conditions: Homo sapiens, HCT-116, 96 h, 4 days of treatment, SYM11/DRAQ5 ratio
Outline: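 HCT116 parental cells (2,000/well, McCoy's 5A with 10% FBS) dosed with PRMT5 inhibitors for four days at 37° C. Fixed in paraformaldehyde and methanol, then stained with SYM11 antibody and DRAQ5.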

[4] = molecular target: T1, PRMT5/MEP50 complex (Homo sapiens (Human), UniProt O14744); assay: PRMT5:MEP50 FlashPlate Assay (histone H4 peptide substrate, plus and minus MTA); type: biochemical; conditions: for IC50: IC50 + 2 μM MTA (nM), in the presence of 2 μM MTA; for pIC50: in the absence of MTA, read-out: IC50
T1 sequence (O14744 2-637): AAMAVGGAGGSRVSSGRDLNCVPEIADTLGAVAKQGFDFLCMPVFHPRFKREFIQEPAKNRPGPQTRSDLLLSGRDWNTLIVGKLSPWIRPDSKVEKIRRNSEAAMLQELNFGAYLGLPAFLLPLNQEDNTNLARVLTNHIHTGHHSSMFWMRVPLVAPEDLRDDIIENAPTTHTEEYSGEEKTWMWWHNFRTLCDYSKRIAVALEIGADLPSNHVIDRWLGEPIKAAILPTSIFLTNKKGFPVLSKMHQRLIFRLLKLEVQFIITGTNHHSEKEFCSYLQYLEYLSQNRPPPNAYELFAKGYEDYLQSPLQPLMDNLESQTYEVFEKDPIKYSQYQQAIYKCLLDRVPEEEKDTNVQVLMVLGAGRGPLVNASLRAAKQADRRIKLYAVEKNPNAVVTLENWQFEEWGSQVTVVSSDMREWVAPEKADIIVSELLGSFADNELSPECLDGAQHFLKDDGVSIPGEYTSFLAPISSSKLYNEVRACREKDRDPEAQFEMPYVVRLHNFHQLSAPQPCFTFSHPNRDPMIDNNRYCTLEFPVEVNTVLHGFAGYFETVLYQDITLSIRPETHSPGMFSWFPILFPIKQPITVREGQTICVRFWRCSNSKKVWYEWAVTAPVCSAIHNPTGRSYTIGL
T1 sequence (Q9BQA1 2-342 partner): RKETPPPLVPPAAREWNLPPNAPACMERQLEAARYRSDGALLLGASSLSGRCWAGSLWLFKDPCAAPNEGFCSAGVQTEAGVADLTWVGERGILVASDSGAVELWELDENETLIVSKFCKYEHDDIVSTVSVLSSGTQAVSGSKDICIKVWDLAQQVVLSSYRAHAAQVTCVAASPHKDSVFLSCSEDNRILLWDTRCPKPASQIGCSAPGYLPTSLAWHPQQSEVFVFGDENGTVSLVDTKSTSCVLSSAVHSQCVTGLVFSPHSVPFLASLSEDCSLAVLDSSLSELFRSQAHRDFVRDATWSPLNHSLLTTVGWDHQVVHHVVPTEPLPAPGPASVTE
Method: The PRMT5 inhibitory activity of compounds of the present invention was determined using either a PRMT5:MEP50 FlashPlate Assay (Reaction Biology Corporation) or a PRMT5:MEP50 HotSpot Assay (Reaction Biology Corporation).
1. PRMT5:MEP50 FlashPlate Assay

[5] = tested on: PRMT5-dependent Symmetric Di-methyl Arginine signal in HCT116 homozygous MTAP knockout cells; assay: SYM11 In-Cell Western, HCT116 MTAP knockout; type: cell-based; conditions: Homo sapiens, HCT-116, 96 h, HCT116 homozygous MTAP knockout cells, 4 days of treatment, SYM11/DRAQ5 ratio; read-out: In-cell-Western (SYM11) HCT116 MTAP_KO IC50
[6] = molecular target: T1, PRMT5/MEP50 complex; assay: PRMT5:MEP50 HotSpot Assay (full-length histone H2A substrate, plus and minus MTA); type: biochemical; conditions: IC50 + 2 μM MTA, in the presence of 2 μM MTA
Outline: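 Tritium incorporated into recombinant full-length histone H2A was counted by scintillation after stopped reactions were captured on filter paper.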

| pIC50 [2] | IC50 [4] [nM] | pIC50 [4] | pIC50 [5] | pIC50 [6] | Structure (SMILES) | pIC50 [1] | pIC50 [3] |
| --- | --- | --- | --- | --- | --- | --- | --- |
| 5.66 | 2.8 | 6.95 | < 5.00 | 5.84 | CCOc1ccn2ncc(-c3ccc4c(=O)[nH]nc(CN)c4c3)c2c1 [Example 4-158, 4-(aminomethyl)-6-(5-ethoxypyrazolo[1,5-a]pyridin-3-yl)phthalazin-1(2H)-one] | 5.76 | < 5.00 |
| 5.08 | 4 | 7.16 | < 5.00 | 6.41 | CN(c1ccccc1)c1cncc(-c2ccc3c(=O)[nH]nc(CN)c3c2)c1 [Example 4-159, 4-(aminomethyl)-6-(5-(methyl(phenyl)amino)pyridin-3-yl)phthalazin-1(2H)-one] | < 5.00 | < 5.00 |

Reference: patent US11479551B2, “MTA-cooperative PRMT5 inhibitors” (Mirati Therapeutics, Inc., priority 2019, dated 2022)
